{"source": "patent EP4772634A1", "about": "“DOUBLE-STRANDED RNA TARGETING COAGULATION FACTOR XI” (Chia Tai Tianqing Pharmaceutical Group Co., Ltd., priority 2023, dated 2025)", "key": {"[1]": {"test_system": "activated partial thromboplastin time (APTT)", "test": "In vivo activity in cynomolgus monkeys, activated partial thromboplastin time in plasma", "conditions": "cynomolgus monkey plasma, subcutaneous once, 14 mg/kg (second row, dose by order of Table 17)", "protocol": "(§1) On day 7 before administration, female cynomolgus monkeys weighing 2-4 kg were fasted overnight, and about 1 mL of blood was collected from the femoral vein. Plasma was collected by centrifugation. FXI protein (Human Coagulation Factor XI ELISAkit, Thermo, Cat. No. EH118RB), FXI activity (coagulation factor XI assay kit, Stago, Cat. No. 00723), and APTT (activated partial thromboplastin time assay kit, Stago, Cat. No. 00595) were measured. The monkeys were evenly divided into groups based on these indicators. On day 0, the dsRNA ligand conjugates of the present application (TD02M02L01, etc.) were injected. On day 0, day 3, day 7, day 14, day 21, day 28, day 37, day 54, and day 68, plasma was collected to measure plasma FXI protein, FXI activity, and activated partial thromboplastin time (APTT).\nThe activated partial thromboplastin time prolongation rate was calculated according to the following equation: [formula]\n(§2) The content of the coagulation factor XI protein, the FXI activity, and the activated partial thromboplastin time in animal plasma were measured before and on day 0, day 3, day 7, day 14, day 21, day 28, day 37, day 54, and day 68 after the subcutaneous administration of the dsRNA ligand conjugates of the present application at doses of 4.2 mg/kg and 14 mg/kg to cynomolgus monkeys (Table 17). […] Table 17. In vivo experimental design"}, "[2]": {"test_system": "human coagulation factor XI protein", "test": "In vivo activity in AAV-FXI model mice, serum FXI protein by ELISA", "conditions": "AAV-FXI mice (C57BL/6 male), single subcutaneous 3 mg/kg", "protocol": "4-6 week old C57BL/6 male mice were injected via the tail vein with 1 × 10^11 vg of AAV8-FXI (WZ Biosciences). On day 28 after modeling, mice with an hFXI protein content of greater than 100 ng/mL were selected. The mice were randomly divided into groups based on body weight and were injected with 3 mg/kg of the dsRNA ligand conjugate of the present application (amount calculated based on siRNA only) on day 0. Orbital blood was collected on day 7, day 14, day 35, and day 56. Serum was separated, and the content of the coagulation factor XI protein in the serum at each time point was measured using a Human Coagulation Factor XI ELISA kit (Thermo, Cat. No. EH118RB).\n(§3) The coagulation factor XI protein inhibition rate was calculated according to the following equation: [formula]\nThe content of the coagulation factor XI protein in animal serum was measured before and on day 7, day 14, day 35, and day 56 after a single subcutaneous administration of the dsRNA ligand conjugate of the present application at a dose of 3 mg/kg to AAV-FXI mice (see Table 15). […] Table 15. In vivo experimental design"}, "[3]": {"test_system": "human coagulation factor XI protein", "test": "In vivo activity in human coagulation factor XI model mice (Experimental Example 3), plasma FXI protein by ELISA", "conditions": "humanized mice", "protocol": "The humanized mice used in this experimental example were purchased from Cyagen Biosciences Co., Ltd. The humanized mice were randomly divided into groups, with 4 mice per group. The compound and PBS control (pH = 7.2) were administered to each group of mice, respectively. The day of the first administration was designated as day 0 of the experiment. The corresponding compound solutions were administered via a single subcutaneous injection based on animal body weight, at administration doses of 1 mg/kg and 5 mg/kg. PBS control mice were each administered PBS, with an administration volume of 10 mL/kg body weight. Orbital blood was collected before administration and on day 7, day 14, day 28, day 42, and day 63 after administration. Plasma was separated, and the content of the coagulation factor XI protein in the plasma was measured at each time point.\nAbout 165 µL of blood was collected from the orbital veins for plasma collection. A 3.8% trisodium citrate anticoagulant was added to the whole blood in a volume ratio of 1:9 (anticoagulant:[…], v/v), and the mixture was centrifuged at 3000 rpm at 20 °C for 15 min to collect plasma. The content of the coagulation factor XI protein in the plasma obtained from the above groups of mice (test groups administered the compound and PBS control group) was measured using a Human Coagulation Factor XI ELISA kit (Sigma, Cat. No. RAB1385-1KT).\nas §3\nTable 11 lists the measurement of FXI protein content in animal plasma before and on day 7, day 14, day 28, day 42, and day 63 after a single subcutaneous administration of siRNA ligand conjugates (TD01M01L01, TD02M01L01) at doses of 1 mg/kg and 5 mg/kg to humanized homozygous mice. […] Table 11. In vivo experimental design"}, "coagulation factor XI": {"test_system": "coagulation factor XI", "test": "In vivo activity in cynomolgus monkeys, plasma FXI activity", "conditions": "cynomolgus monkey plasma, subcutaneous once, 4.2 mg/kg (first row, dose by order of Table 17)", "protocol": "as §1\nThe coagulation factor XI activity inhibition rate was calculated according to the following equation: [formula]\nas §2"}}, "data": [{"substance": "TD02M02L01: dsRNA ligand conjugate: TD02M02 with L01 (GalNAc) ligand at 3' end of sense strand SEQ ID NO 35; antisense SEQ ID NO 36 (sense GGATGATTTTCTTATATCA; antisense TGATATAAGAAAATCATCCTG; GalNAc L01 ligand at sense 3' end, 2'-OMe/2'-F, pattern not given here)", "values": [{"measurement": "Relative prolongation rate (%) of APTT", "setting": "[1]; D3", "result": 6.0, "unit": "%"}, {"measurement": "Relative prolongation rate (%) of APTT", "setting": "[1]; D7", "result": 25.2, "unit": "%"}, {"measurement": "Relative prolongation rate (%) of APTT", "setting": "[1]; D14", "result": 60.9, "unit": "%"}, {"measurement": "Relative prolongation rate (%) of APTT", "setting": "[1]; D21", "result": 116.0, "unit": "%"}, {"measurement": "Relative prolongation rate (%) of APTT", "setting": "[1]; D28", "result": 70.6, "unit": "%"}, {"measurement": "Relative prolongation rate (%) of APTT", "setting": "[1]; D37", "result": 100.3, "unit": "%"}, {"measurement": "Relative prolongation rate (%) of APTT", "setting": "[1]; D54", "result": 124.4, "unit": "%"}, {"measurement": "Relative prolongation rate (%) of APTT", "setting": "[1]; D68", "result": 132.4, "unit": "%"}, {"measurement": "Relative inhibition rate (%) of FXI protein", "setting": "[2]; D7", "result": 96.3, "unit": "%"}, {"measurement": "Relative inhibition rate (%) of FXI protein", "setting": "[2]; D14", "result": 97.3, "unit": "%"}, {"measurement": "Relative inhibition rate (%) of FXI protein", "setting": "[2]; D35", "result": 86.0, "unit": "%"}, {"measurement": "Relative inhibition rate (%) of FXI protein", "setting": "[2]; D56", "result": 57.4, "unit": "%"}, {"measurement": "Relative inhibition rate (%) of FXI protein", "setting": "[3]; single subcutaneous 1 mg/kg, D7", "result": 66.7, "unit": "%"}, {"measurement": "Relative inhibition rate (%) of FXI protein", "setting": "[3]; single subcutaneous 1 mg/kg, D14", "result": 70.2, "unit": "%"}, {"measurement": "Relative inhibition rate (%) of FXI protein", "setting": "[3]; single subcutaneous 1 mg/kg, D28", "result": 58.6, "unit": "%"}, {"measurement": "Relative inhibition rate (%) of FXI protein", "setting": "[3]; single subcutaneous 1 mg/kg, D42", "result": 70.5, "unit": "%"}, {"measurement": "Relative inhibition rate (%) of FXI protein", "setting": "[3]; single subcutaneous 1 mg/kg, D63", "result": 47.0, "unit": "%"}, {"measurement": "Relative inhibition rate (%) of FXI protein", "setting": "[3]; single subcutaneous 5 mg/kg, D7", "result": 91.5, "unit": "%"}, {"measurement": "Relative inhibition rate (%) of FXI protein", "setting": "[3]; single subcutaneous 5 mg/kg, D14", "result": 93.5, "unit": "%"}, {"measurement": "Relative inhibition rate (%) of FXI protein", "setting": "[3]; single subcutaneous 5 mg/kg, D28", "result": 88.4, "unit": "%"}, {"measurement": "Relative inhibition rate (%) of FXI protein", "setting": "[3]; single subcutaneous 5 mg/kg, D42", "result": 86.9, "unit": "%"}, {"measurement": "Relative inhibition rate (%) of FXI protein", "setting": "[3]; single subcutaneous 5 mg/kg, D63", "result": 66.3, "unit": "%"}, {"measurement": "Relative inhibition rate (%) of FXI activity", "setting": "coagulation factor XI; D3", "result": 20.5, "unit": "%"}, {"measurement": "Relative inhibition rate (%) of FXI activity", "setting": "coagulation factor XI; D7", "result": 66.0, "unit": "%"}, {"measurement": "Relative inhibition rate (%) of FXI activity", "setting": "coagulation factor XI; D14", "result": 84.7, "unit": "%"}, {"measurement": "Relative inhibition rate (%) of FXI activity", "setting": "coagulation factor XI; D21", "result": 88.9, "unit": "%"}, {"measurement": "Relative inhibition rate (%) of FXI activity", "setting": "coagulation factor XI; D28", "result": 89.2, "unit": "%"}, {"measurement": "Relative inhibition rate (%) of FXI activity", "setting": "coagulation factor XI; D37", "result": 92.6, "unit": "%"}, {"measurement": "Relative inhibition rate (%) of FXI activity", "setting": "coagulation factor XI; D54", "result": 91.4, "unit": "%"}]}]}
